{"source": "patent EP4647061A1", "about": "“COMPOSITION CONTAINING RETINOL AND SYNERGIST AND USE THEREOF” (Guangzhou Jiyan Cosmetics Technology Co., Ltd., priority 2024, dated 2025)", "assay_type_in_all_cases": "cell-based", "key": {"COLI (type I collagen)": {"tested_on": "COLI (type I collagen)", "assay": "Transcription of type I collagen (COL I) by qRT-PCR in UVA-stimulated fibroblast model", "conditions": "for PCR Transcription of Type I Collagen (COL I) Up-regulation Rate Compared with NC Group: UVA 30 J/cm^2, (sample - NC)/NC x 100%; for PCR Transcription of Type I Collagen (COL I) Mean Value: UVA 30 J/cm^2, mRNA by 2^-ΔΔCT normalised to BC = 1 (NC 0.43), dosing: TGF-β1 100 ng/mL, Pro-xylane 0.5000%, tetrapeptide-1 0.00109%, encapsulated retinol 0.00313%, gum 0.00222%, combinations at the same concentrations, 1440 min", "method": "(§1) Testing method: based on UVA-stimulated fibroblast model, transcription of type I and type III collagens was tested using qRT-PCR method, and specific steps were as follows: • 1) Cell inoculation: after resuscitation of fibroblasts, when a plating rate reached about 60%, cells were inoculated in a 6-well plate, and incubated overnight in an incubator (37 °C, 5% CO2). • 2) Liquid formulation: according to test schemes (see TABLE 1 and TABLE 2), test substance working solutions were formulated respectively according to mass ratios. TABLE 1 COL I Detection Scheme\n(§2) 3) Dosing: according to the test schemes in TABLE 1 and TABLE 2, when the plating rate of the cells in the 6-well plate reached about 30%-50%, dosing was performed for the groups respectively, with each group in triplicate. The blank control group and the negative control group were added with 2 mL of a culture solution per well, the positive control group was added with 2 mL of a TGF-β1-containing culture solution per well, and sample group was added with 2mL of a test sample-containing culture solution at corresponding concentration per well. After the dosing was completed, the 6-well plate continued to be cultured in the CO2 incubator (37 °C, 5% CO2) for 24 h.\n(§3) 4) UVA stimulation: according to test groups, except the blank control group, other groups were all subjected to UVA irradiation, with an irradiation dosage of 30 J/cm^2. After the irradiation was finished, culture was continued in the CO2 incubator (37 °C, 5% CO2) for 24 h.\n(§4) 5) Cell collection: after incubation was ended, an original solution was sucked out and discarded, PBS cleaning was performed twice, and each well was added with 1 mL of RNAiso Plus, to pipet and lyse the cells, after which samples were collected.\n(§5) 6) Detection of gene expression: RNA was extracted and subjected to reverse transcription to cDNA to undergo fluorescence quantitative PCR detection, and result was calculated by a 2^-△△CT method.\n(§6) 7) Calculation of up-regulation rate: Up-regulation rate (%) = (Sample group−Negative control group)/(Negative control group) × 100% [formula]\n(§7) 8) Data analysis: statistical analysis was performed using t-test method, and normalization processing was performed on amplification factors of mRNA in BC group, where all statistical analysis was double-tailed. Compared with the blank group, significance is expressed by ^#, p<0.05 is expressed by ^#, p<0.01 is expressed by ^##; compared with the negative blank group, significance is expressed by*, p<0.05 is expressed by *, p<0.01 is expressed by **."}, "[1]": {"tested_on": "COL III (type III collagen)", "assay": "Transcription of type III collagen (COL III) by qRT-PCR in UVA-stimulated fibroblast model", "conditions": "for PCR Transcription of Type III Collagen (COL III) Up-regulation Rate Compared with NC Group: UVA 30 J/cm^2, (sample - NC)/NC x 100%; for PCR Transcription of Type III Collagen (COL III) Mean Value: UVA 30 J/cm^2, mRNA by 2^-ΔΔCT normalised to BC = 1 (NC 0.67), dosing: TGF-β1 100 ng/mL, Pro-xylane 0.5000%, tetrapeptide-1 0.00109%, encapsulated retinol 0.00313%, combination at the same concentrations, 1440 min", "method": "as §1, §2, §3, §4, §5, §6, §7"}, "[2]": {"tested_on": "CRABP2 cellular retinoic acid binding protein 2", "assay": "Transcription of CRABP2 by qRT-PCR in UVA-stimulated fibroblast model", "method": "Testing method: based on UVA-stimulated fibroblast model, transcription of CRABP2 was tested using qRT-PCR method, and specific steps were as follows: • 1) Cell inoculation: after resuscitation of cells, when a plating rate reached about 60%, the cells were inoculated in a 6-well plate, and incubated overnight in an incubator (37 °C, 5% CO2). • 2) Liquid formulation: according to a test scheme (see TABLE 5), test substance working solutions were formulated respectively according to mass ratios. TABLE 5 CRABP2 Detection Scheme\nas §2, with “According” for “according”, “scheme” for “schemes”, “5,” for “1 and TABLE 2,”, “2 mL” for “2mL”, “h. […]” for “h.”\n6) Detection of gene expression: RNA was extracted and subjected to reverse transcription to cDNA to undergo fluorescence quantitative PCR detection, and result was calculated by a 2^-△△CT method. […]"}}, "data": [{"molecule": "CC(O)C[C@@H]1OC[C@@H](O)[C@H](O)[C@H]1O", "note": "(stereo partly shown) [Comparative Example 1, Pro-xylane, reference compound]", "values": [{"measurement": "PCR Transcription of Type I Collagen (COL I) Up-regulation Rate Compared with NC Group", "setting": "COLI (type I collagen)", "value": 134.88, "unit": "%"}, {"measurement": "PCR Transcription of Type I Collagen (COL I) Mean Value", "setting": "COLI (type I collagen)", "value": 1.01}, {"measurement": "PCR Transcription of Type III Collagen (COL III) Up-regulation Rate Compared with NC Group", "setting": "[1]", "value": 31.34, "unit": "%"}, {"measurement": "PCR Transcription of Type III Collagen (COL III) Mean Value", "setting": "[1]", "value": 0.88}]}, {"molecule": "Tetrapeptide-1 [Comparative Example 2]", "values": [{"measurement": "PCR Transcription of Type I Collagen (COL I) Up-regulation Rate Compared with NC Group", "setting": "COLI (type I collagen)", "value": 25.58, "unit": "%"}, {"measurement": "PCR Transcription of Type I Collagen (COL I) Mean Value", "setting": "COLI (type I collagen)", "value": 0.54}, {"measurement": "PCR Transcription of Type III Collagen (COL III) Up-regulation Rate Compared with NC Group", "setting": "[1]", "value": 5.97, "unit": "%"}, {"measurement": "PCR Transcription of Type III Collagen (COL III) Mean Value", "setting": "[1]", "value": 0.71}, {"measurement": "Transcription of Cellular Retinoic Acid Binding Protein 2 (CRABP2) Up-regulation Rate Compared with NC Group", "setting": "[2]; UVA 30 J/cm^2, (sample - NC)/NC x 100%", "value": 20.83, "unit": "%"}, {"measurement": "Transcription of Cellular Retinoic Acid Binding Protein 2 (CRABP2) Mean Value", "setting": "[2]; UVA 30 J/cm^2, mRNA by 2^-ΔΔCT normalised to BC = 1 (NC 0.48), dosing: TGF-β1 100 ng/mL, gum 0.00222%, encapsulated retinol 0.00313%, tetrapeptide-1 0.00109%, combinations at the same concentrations, 1440 min", "value": 0.58}]}]}
